Assay results: a melting point compilation (Tetko et al.; mined from patent text by program, amines drawn as free bases though some values may be those of a salt)

SMILES | melting point
CC(C)(C)OC(=O)c1ccc(C=Cc2ccc(C(=O)OC(C)(C)C)cc2)cc1 | 126 to 127 °C
CC(=O)n1nc(OCC(=O)C(C)(C)C)c(-c2ccccc2)c1-c1ccc(S(C)(=O)=O)cc1 | 189 to 191 °C
CCN(C(=O)C(F)(F)F)c1cc(C)nc(Oc2c(C)cc(C)cc2C)c1C | 110 to 111 °C
c1ccc(-n2ncnc2-c2ccncc2)cc1 | 92 to 94 °C
CC(C)NC(=O)c1cc2nc(C3CC3)n(C)c2c(Cl)c1NC(=O)c1cc(C(F)(F)F)nn1-c1ncccc1Cl | 242 to 244 °C
CCCCCCCCCCCCCCCCC[C@@H](O)CC(=O)OC | 64 to 64.5 °C
N#CC1=C(c2ccccc2)Nc2n[nH]cc2C1c1cccc(Cl)c1Cl (stereo unspecified) | 162 °C
CCCCc1nn(-c2ccccc2C(F)(F)F)c(=O)n1Cc1ccc(-c2cc(CCC)ccc2S(=O)(=O)NC(=O)c2ccccc2Cl)cc1F | 79 to 82 °C
NS(=O)(=O)c1ccc(-n2nc(CCCNC(=O)Nc3ccccc3)cc2-c2ccccc2)cc1 | 171 to 172 °C
CC(=O)C(Cc1cc(O)c(O)c([N+](=O)[O-])c1)C(=O)C1CC1 (stereo unspecified) | 98 to 104 °C
CCCCN(CCCC)c1ccc(C=CC=Cc2ccc(C=CC3=C(C#N)C(=C(C#N)C#N)OC3(c3ccccc3)C(F)(F)F)s2)c(OC)c1 (stereo unspecified) | 125 to 140 °C
CCOC(=O)CCCN1CCn2nc(C(=O)O)cc2C1=O | 175 °C
Cc1cccc(Nc2cc(Cl)nc(SCC(=O)O)n2)c1C | 146 to 151 °C
Cc1c(NC(=O)c2ccc(-c3ccccc3)cc2)ccc2cc(CN3CCCC3)cnc12 | 184 to 186 °C
CCC(OC)(c1ccc(OCc2cc3ccccc3[nH]c2=O)c(OC)c1)c1nccs1 (stereo unspecified) | 170 to 171 °C
CCOC(=O)C(C#N)=Cc1cc(OC)c(N)c(OC)c1 | 77 to 78 °C
Cc1cc(C)c2cccc(OCc3c(Cl)ccc(S(=O)(=O)N4CC(O)CC4C(=O)O)c3Cl)c2n1 (stereo unspecified) | > 260 °C
CC(=O)N1N=C(c2ccc(N)cc2)c2cc(Br)ccc2CC1C (stereo unspecified) | 205 to 208 °C
CC(C)(C)OC(=O)N1CC(CC=O)C1 | 52 to 54 °C

SMILES | melting point
CCOP(=O)(OCC)c1nc(NC(C)C)nc(NC(C)C)n1 | 91 to 94 °C
CC(=O)SC(CC(=O)c1ccc(Oc2ccc(C(C)C)cc2)cc1)C(=O)O (stereo unspecified) | 110 to 112 °C
O=C1c2ccccc2C(=O)N1CCCSC1N=CC=CN1NC(=S)NCC(F)(F)F (stereo unspecified) | 214 to 215 °C
O=c1ccn(-c2cccc(C(F)(F)F)c2)nc1-c1cc(C(F)(F)F)nn1-c1ccccc1 | 190 to 191 °C
COc1c(N2CC[C@@H](C(C)(C)NC(=O)OC(C)(C)C)C2)c(F)cc2c(=O)c(C(=O)O)cn(C3CC3)c12 | 70 to 72 °C
COc1ccc(-c2nc(-c3cccn3CC(=O)OC(C)C)sc2-c2ccc(OC)cc2)cc1 | 130 to 133 °C
C=C1/C(=C\C=C2/CCC[C@@]3(C)[C@H]2CC[C@@H]3[C@]2(C)C[C@H](CC(C)(C)O)CO2)C[C@@H](O)C[C@@H]1O | 128 °C
CCOC(=O)Cn1c(=O)c(-c2ccccc2Cl)cc2cnc(NC3C4CN(Cc5ccccc5)CC43)nc21 (stereo unspecified) | 186 to 188 °C
CC(C)(C)NC(=O)c1nn(-c2ccc(F)cc2Cl)c2c1C1CCC2C1 (stereo unspecified) | 122 to 124 °C
CC12CCCC=C1CCC1C2CCC2(C)C(O)CCC12 (stereo unspecified) | 144 to 147 °C
CCCNC(=O)C1(CCCCCSc2nc3ccc(OCC)cc3s2)c2ccccc2-c2ccccc21 | 54 to 56 °C
COC(=O)CNC(=O)[C@H](NC(=O)OCC1c2ccccc2-c2ccccc21)C(C)C | 148 to 150 °C
O=C(NCc1cccnc1)c1ccc(OCc2ccc3ccccc3n2)cc1C1(c2ccccc2)CC2CCC1C2 (stereo unspecified) | 179 to 181 °C
CCSc1nc(=O)n(C(=O)NC)s1 | 131 °C
NS(=O)(=O)c1ccc(-c2cccc(-c3nc(-c4ccc(Cl)cc4)cc(C(F)(F)F)n3)c2)s1 | 226 °C
COc1ccc2c(c1)OCC(c1ccccc1)C2c1ccc(OCCN2CCCC2)cc1 (stereo unspecified) | 113 to 114 °C
CN=C(NC#N)NCCSCc1c[nH]cn1 | 138 to 140 °C
O=c1cc(Nc2cc([N+](=O)[O-])ccc2Cl)[nH]n1-c1c(Cl)cc(Cl)cc1Cl | 274 to 278 °C
O=C1Nc2ccc(Cl)cc2C1c1ncnc2c1cnn2C1CCCCC1 (stereo unspecified) | 300 to 305 °C

Continued, values first:

melting point | SMILES
128 to 130 °C | Cc1oc(-c2ccccc2)nc1COc1ccc(COc2cncc(CO)c2)cc1
124 °C | O=S(=O)(NCc1ccnc2ccccc12)c1ccc(-c2cc(Cl)ccc2Cl)cc1
70 to 72 °C | C#CCN(C(=O)c1cc(C)oc1C(F)(F)F)S(=O)(=O)c1cccc(Cl)c1
45 to 47 °C | OCc1coc(Cc2ccc(F)cc2)c1
150 to 151 °C | COc1ccc(-n2ccn([C@H](C)[C@@]3(c4ccc(F)cc4F)CO3)c2=O)cc1
94 to 97 °C | COC(=O)CCCc1cc2cc(Cl)ccc2n1S(=O)(=O)c1cccc(C(C)C)c1
155 °C | FC(F)(F)c1cc(-c2ccc(Cl)cc2)nc2c(I)cnn12
224 to 226 °C | CCCCc1nc2ccccc2n1Cc1ccc(C(=O)O)cc1F
159 to 160 °C | CC(C)(O)c1nnc(-c2ccc3ncn(-c4ccc(OC(F)(F)F)cc4)c3c2)o1
64 to 67 °C | OC(CCCC(O)c1ccccc1)c1ccccc1 (stereo unspecified)
146 to 149 °C | CC(=O)N1CCC(O)(C(=O)c2ccc(F)cc2)CC1
79 to 81 °C | CCOC(=O)c1c[nH]n(Cc2ccccc2)c1=O
90 °C | C#CCn1c(C(F)(F)F)c(CO)c2ccccc21
99 to 101 °C | CC(C)C(=O)N1CCC(CNc2ccc(Cl)cc2C(=O)Nc2ccc(Cl)cn2)CC1
134 to 137 °C | O=c1oc2ccccc2n1Sc1ccc(Cl)cc1
142 to 144 °C | N#Cc1cnc2cc(/C=C/CCCN3CCOCC3)ccc2c1Nc1ccc(Cl)cc1Cl
147 to 149 °C | CCN(CC)C(=O)c1cc(-c2ccc(OC)cc2)c2ccccc2c1
152 to 153 °C | OC(COc1cccc(-c2cc[nH]n2)c1)CN1CCN(c2ccc(Cl)cc2)CC1 (stereo unspecified)
206 °C | N#Cc1c(N)nc2ccccc2c1NCc1ccco1
187 to 190 °C | Cc1ccccc1C(=O)N(C)c1ccc(C(=O)O)cc1
238 °C | O=C(NC(Cc1ccc(OCc2ccccc2)cc1)C(=O)O)c1cn2cc(-c3ccccc3F)ccc2n1 (stereo unspecified)
244 to 246 °C | Cc1cccc(COc2cccc3c2CN(C2CCC(=O)NC2=O)C3=O)c1 (stereo unspecified)
82 to 84 °C | Cc1cc(C(=O)NCCO)ncc1C(c1cc(F)ccc1F)S(=O)(=O)c1cc(F)cc(F)c1 (stereo unspecified)
268 to 271 °C | OCc1cc(F)c(CO)cc1F
123 to 125 °C | CNC(=O)N(c1ccc(OC(F)(F)F)cc1)c1nc(OCC(F)(F)F)cc(OCC(F)(F)F)n1
162 to 164 °C | COc1ccc(Cl)cc1NC(=O)[C@H]1[C@H](c2ccc(Cl)cc2)C1(C)C (relative stereo)
73 to 75 °C | COc1ccc(NC(=N)c2ccccn2)cc1
195 to 197 °C | CC(C)(C)c1cc(CCc2ccc(NC(=O)NC3CCN(Cc4ccccc4)CC3)cc2)cc(C(C)(C)C)c1O
